Measurements reported in US20100129430A1, “LIPOSOME DRUG CARRIERS WITH PH-SENSITIVITY” (priority 2008, published 2010).

How the values were obtained:
pKa of lipid headgroups = format: physicochemical; settings: lowest value that arranges all release-rate data points in a straight line
Procedure: The Zeta potential of liposomes containing different fractions of the titratable domain-forming lipid DSPA was measured in phosphate buffer at different pH values (7.4, 5.5, and 4.0) using a Zetasizer ZS90 (Malvern instruments, Worcestershire, UK). Measurements were performed in 10 mM PBS with no salt. For these measurements, liposomes (1 mM total lipid) were prepared without grafted PEG-chains on their surface to allow for closer approach of the plane of shear to the physical surface of lipid membranes.
For all lipid fractions, the rate of content release attributed to discontinuities at the interfacial boundaries is linearly proportional to the square root of protonated DSPA lipids and therefore proportional to the total perimeter of the discontinuities' interface (open symbols).
This deviation of the pKa value can be attributed to several factors. First, the proposed model of small, circular domains is certainly an oversimplification. Second, because the apparent pKa of PA should depend on the surface charge density, the values of apparent pKa should be composition-dependent.

[1] = reported value; cited from earlier work

## phosphatidic acid
pKa of lipid headgroups
  pKa used to calculate the fraction of protonated DSPA lipids: 4.5
[1]
  pKa: 4.0
